Experimental data reported in ChEMBL document CHEMBL4622944 (Bioorg Med Chem Lett, 2020).

What was measured:
Format in all cases: functional, cell-based
A549 = assay: Antiproliferative activity against human A549 cells assessed as reduction in cell viability by MTT assay
HCT-116 = assay: Antiproliferative activity against human HCT116 cells assessed as reduction in cell viability by MTT assay
PC-3 = assay: Antiproliferative activity against human PC3 cells assessed as reduction in cell viability by MTT assay

| Structure (SMILES) | IC50 (A549) [µM] | IC50 (HCT-116) [µM] | IC50 (PC-3) [µM] |
| --- | --- | --- | --- |
| Cn1c(=O)c(=O)n(C2CCCC2)c2nc(N/N=C/c3ccc(S(C)(=O)=O)cc3)ncc21 | 84.5 | 86.6 | 26.6 |
| COc1cccc(/C=N/Nc2ncc3c(n2)n(C2CCCC2)c(=O)c(=O)n3C)c1 | 27.4 | 45.8 | 20.7 |
| Cn1c(=O)c(=O)n(C2CCCC2)c2nc(N/N=C/c3cc([N+](=O)[O-])ccc3Cl)ncc21 | 8.78 | 5.61 | 9.26 |
| Cn1c(=O)c(=O)n(C2CCCC2)c2nc(N/N=C/c3ccc(F)cc3Cl)ncc21 | 11 | 13.8 | 15.2 |
| Cn1c(=O)c(=O)n(C2CCCC2)c2nc(N/N=C/c3ccc(O)c(Br)c3)ncc21 | 12.8 | 17.7 | 11.6 |
| Cn1c(=O)c(=O)n(C2CCCC2)c2nc(N/N=C/c3cccc(Cl)c3Cl)ncc21 | 39.1 | 26.4 | 17.2 |
| COc1ccc(/C=N/Nc2ncc3c(n2)n(C2CCCC2)c(=O)c(=O)n3C)c(OC)c1 | > 100 | > 100 | > 100 |
| Cc1cc(C)c(/C=N/Nc2ncc3c(n2)n(C2CCCC2)c(=O)c(=O)n3C)c(C)c1 | 12 | 7.92 | 13.9 |
| COc1ccc(/C=N/Nc2ncc3c(n2)n(C2CCCC2)c(=O)c(=O)n3C)cc1 | > 100 | 36.1 | 26.2 |
| CSc1ccc(/C=N/Nc2ncc3c(n2)n(C2CCCC2)c(=O)c(=O)n3C)cc1 | 14.1 | 9.01 | 21 |
| COc1cc(/C=N/Nc2ncc3c(n2)n(C2CCCC2)c(=O)c(=O)n3C)cc(OC)c1OC | 18.3 | 22.9 | 17.5 |
| Cn1c(=O)c(=O)n(C2CCCC2)c2nc(N/N=C/c3ccccc3)ncc21 | > 100 | > 100 | 48.2 |
| Cn1c(=O)c(=O)n(C2CCCC2)c2nc(N/N=C/c3ccc(C(F)(F)F)cc3)ncc21 | 40.6 | 29 | 23.6 |
| Cn1c(=O)c(=O)n(C2CCCC2)c2nc(N/N=C/c3ccc(F)cc3F)ncc21 | 18.3 | 19.8 | 13.2 |
